# Assay results reported in patent US11180462B2, “Microbiocidal oxadiazole derivatives” (SYNGENTA PARTICIPATIONS AG, priority 2015, dated 2021).
# How the values were obtained:
# [1] = tested on: Puccinia recondita f. Sp. Tritici; test: Fungicidal activity against Puccinia recondita f. sp. tritici / wheat / leaf disc preventative (brown rust); type: in vivo; conditions: foliar, 200 ppm in the applied formulation, wheat leaf segments, preventative, compared to untreated control leaf disks, read-out: disease control
# Description: Leaf disks or leaf segments of various plant species are cut from plants grown in a greenhouse. The cut leaf disks or segments are placed in multiwell plates (24-well format) onto water agar. The leaf disks are sprayed with a test solution before (preventative) or after (curative) inoculation. Compounds to be tested are prepared as DMSO solutions (max. 10 mg/ml) which are diluted to the appropriate concentration with 0.025% Tween20 just before spraying. The inoculated leaf disks or segments are incubated under defined conditions (temperature, relative humidity, light, etc.) according to the respective test system. A single evaluation of disease level is carried out 3 to 14 days after inoculation, depending on the pathosystem. Percent disease control relative to the untreated check leaf disks or segments is then calculated.
# Fungicidal Activity Against Puccinia recondita f. Sp. Tritici/Wheat/Leaf Disc Preventative (Brown Rust)
# Wheat leaf segments cv. Kanzler were placed on agar in multiwell plates (24-well format) and sprayed with the formulated test compound diluted in water. The leaf disks were inoculated with a spore suspension of the fungus 1 day after application. The inoculated leaf segments were incubated at 19° C. and 75% relative humidity (rh) under a light regime of 12 hours light/12 hours darkness in a climate cabinet and the activity of a compound was assessed as percent disease control compared to untreated when an appropriate level of disease damage appears in untreated check leaf segments (7 to 9 days after application).
# The following compounds at 200 ppm in the applied formulation give at least 80% disease control in this test when compared to untreated control leaf disks under the same conditions, which show extensive disease development.
# [2] = tested on: Glomerella lagenarium (Colletotrichum lagenarium); test: Fungicidal activity against Glomerella lagenarium (Colletotrichum lagenarium) liquid culture / cucumber / preventative (anthracnose); type: cell-based; conditions: Colletotrichum orbiculare; 20 ppm in the applied formulation; liquid culture (PDB), growth inhibition measured photometrically after 3 to 4 days; compared to untreated control; read-out: disease control
# Method in brief: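 Photometric read-out of fungal growth after 2–7 days, expressed as percent antifungal activity versus untreated check. Cryo-stored conidia in PDB; compound at 20 ppm; dark, 24 °C, 96% RH.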
smiles,measurement,setting,value
"C#CCN(C)C(=O)N(CC)Cc1ccc(-c2noc(C(F)(F)F)n2)cc1 [Compound 3.96, 1-ethyl-3-methyl-3-prop-2-ynyl-1-[[4-[5-(trifluoromethyl)-1,2,4-oxadiazol-3-yl]phenyl]methyl]urea]",pest or weed control at 200 ppm,[1],≥ 80%
same,inhibition of growth at 20 ppm,[2],≥ 80%
"CON(C(=O)C=C(F)CCl)C(C)c1ccc(-c2noc(C(F)(F)F)n2)cc1 (stereo not drawn) [Compound 1.252, 4-chloro-3-fluoro-N-methoxy-N-[1-[4-[5-(trifluoromethyl)-1,2,4-oxadiazol-3-yl]phenyl]ethyl]but-2-enamide]",pest or weed control at 200 ppm,[1],≥ 80%
same,inhibition of growth at 20 ppm,[2],≥ 80%
"O=C(c1cc2c(cc1Br)OCO2)N(Cc1ccc(-c2noc(C(F)(F)F)n2)cc1)C1CC1 [Compound 1.133, 6-bromo-N-cyclopropyl-N-[[4-[5-(trifluoromethyl)-1,2,4-oxadiazol-3-yl]phenyl]methyl]-1,3-benzodioxole-5-carboxamide]",pest or weed control at 200 ppm,[1],≥ 80%
same,inhibition of growth at 20 ppm,[2],≥ 80%
"C#CCCC(=O)N(Cc1ccc(-c2noc(C(F)(F)F)n2)cc1)CC1CC1 [Compound 1.205, N-(cyclopropylmethyl)-N-[[4-[5-(trifluoromethyl)-1,2,4-oxadiazol-3-yl]phenyl]methyl]pent-4-ynamide]",pest or weed control at 200 ppm,[1],≥ 80%
same,inhibition of growth at 20 ppm,[2],≥ 80%
"CC(=O)NCC(=O)N(Cc1ccc(-c2noc(C(F)(F)F)n2)cc1)OCC=C(Cl)Cl [Compound 1.537, 2-acetamido-N-(3,3-dichloroallyloxy)-N-[[4-[5-(trifluoromethyl)-1,2,4-oxadiazol-3-yl]phenyl]methyl]-acetamide]",pest or weed control at 200 ppm,[1],≥ 80%
same,inhibition of growth at 20 ppm,[2],≥ 80%
"CC(C)(CCl)C(=O)N(Cc1ccc(-c2noc(C(F)(F)F)n2)cc1)CC1CC1 [Compound 1.219, 3-chloro-N-(cyclopropylmethyl)-2,2-dimethyl-N-[[4-[5-(trifluoromethyl)-1,2,4-oxadiazol-3-yl]phenyl]methyl]-propanamide]",pest or weed control at 200 ppm,[1],≥ 80%
same,inhibition of growth at 20 ppm,[2],≥ 80%
"O=C(c1ccc(Cl)cc1)N(Cc1ccc(-c2noc(C(F)(F)F)n2)cc1)C1CC1 [Compound 1.142, 4-chloro-N-cyclopropyl-N-[[4-[5-(trifluoromethyl)-1,2,4-oxadiazol-3-yl]phenyl]methyl]-benzamide]",pest or weed control at 200 ppm,[1],≥ 80%
same,inhibition of growth at 20 ppm,[2],≥ 80%
"CCCON(Cc1ccc(-c2noc(C(F)(F)F)n2)cc1)C(=O)COC(C)=O [Compound 1.306, [2-oxo-2-[propoxy-[[4-[5-(trifluoromethyl)-1,2,4-oxadiazol-3-yl]phenyl]methyl]-amino]ethyl] acetate]",pest or weed control at 200 ppm,[1],≥ 80%
same,inhibition of growth at 20 ppm,[2],≥ 80%
"CC(=O)NCC(=O)N(Cc1ccc(-c2noc(C(F)(F)F)n2)cc1)Cc1ccco1 [Compound 1.461, 2-acetamido-N-(2-furylmethyl)-N-[[4-[5-(trifluoromethyl)-1,2,4-oxadiazol-3-yl]phenyl]methyl]-acetamide]",pest or weed control at 200 ppm,[1],≥ 80%
same,inhibition of growth at 20 ppm,[2],≥ 80%
"CCC(C)N(Cc1ccc(-c2noc(C(F)(F)F)n2)cc1)C(=O)c1ccoc1 (stereo not drawn) [Compound 1.405, N-sec-butyl-N-[[4-[5-(trifluoromethyl)-1,2,4-oxadiazol-3-yl]phenyl]methyl]-furan-3-carboxamide]",pest or weed control at 200 ppm,[1],≥ 80%
same,inhibition of growth at 20 ppm,[2],≥ 80%
"CCCON(Cc1ccc(-c2noc(C(F)(F)F)n2)cc1)C(=O)C1CCCCO1 (stereo not drawn) [Compound 1.283, N-propoxy-N-[[4-[5-(trifluoromethyl)-1,2,4-oxadiazol-3-yl]phenyl]methyl]-tetrahydropyran-2-carboxamide]",pest or weed control at 200 ppm,[1],≥ 80%
same,inhibition of growth at 20 ppm,[2],≥ 80%
"CC#CCOC(=O)N(Cc1ccc(-c2noc(C(F)(F)F)n2)cc1)OC [Compound 2.7, but-2-ynyl N-methoxy-N-[[4-[5-(trifluoromethyl)-1,2,4-oxadiazol-3-yl]phenyl]methyl]-carbamate]",pest or weed control at 200 ppm,[1],≥ 80%
same,inhibition of growth at 20 ppm,[2],≥ 80%
"CC=CC(=O)N(Cc1ccc(-c2noc(C(F)(F)F)n2)cc1)CC1CCCO1 (stereo not drawn) [Compound 1.413, N-(tetrahydrofuran-2-ylmethyl)-N-[[4-[5-(trifluoromethyl)-1,2,4-oxadiazol-3-yl]phenyl]methyl]but-2-enamide]",pest or weed control at 200 ppm,[1],≥ 80%
same,inhibition of growth at 20 ppm,[2],≥ 80%
"CON(Cc1ccc(-c2noc(C(F)(F)F)n2)cc1F)C(=O)c1ccccc1Cl [Compound 1.565, 2-chloro-N-[[2-fluoro-4-[5-(trifluoromethyl)-1,2,4-oxadiazol-3-yl]phenyl]methyl]-N-methoxy-benzamide]",pest or weed control at 200 ppm,[1],≥ 80%
same,inhibition of growth at 20 ppm,[2],≥ 80%
"CON(Cc1c(F)cc(-c2noc(C(F)(F)F)n2)cc1F)C(=O)c1ccccc1Cl [Compound 1.598, 2-chloro-N-[[2,6-difluoro-4-[5-(trifluoromethyl)-1,2,4-oxadiazol-3-yl]phenyl]methyl]-N-methoxy-benzamide]",pest or weed control at 200 ppm,[1],≥ 80%
same,inhibition of growth at 20 ppm,[2],≥ 80%
"CCCCC(=O)N(Cc1ccc(-c2noc(C(F)(F)F)n2)cc1)CC1CCCO1 (stereo not drawn) [Compound 1.453, N-(tetrahydrofuran-2-ylmethyl)-N-[[4-[5-(trifluoromethyl)-1,2,4-oxadiazol-3-yl]phenyl]methyl]-pentanamide]",pest or weed control at 200 ppm,[1],≥ 80%
same,inhibition of growth at 20 ppm,[2],≥ 80%
"CCC(COC)C(=O)N(Cc1ccc(-c2noc(C(F)(F)F)n2)cc1)CC1CCCO1 (stereo not drawn) [Compound 1.440, 2-(methoxymethyl)-N-(tetrahydrofuran-2-ylmethyl)-N-[[4-[5-(trifluoromethyl)-1,2,4-oxadiazol-3-yl]phenyl]methyl]-butanamide]",pest or weed control at 200 ppm,[1],≥ 80%
same,inhibition of growth at 20 ppm,[2],≥ 80%
"Cc1cccc(C)c1C(=O)N(Cc1ccc(-c2noc(C(F)(F)F)n2)cc1)C1CC1 [Compound 1.105, N-cyclopropyl-2,6-dimethyl-N-[[4-[5-(trifluoromethyl)-1,2,4-oxadiazol-3-yl]phenyl]methyl]-benzamide]",pest or weed control at 200 ppm,[1],≥ 80%
same,inhibition of growth at 20 ppm,[2],≥ 80%
"O=C(c1ccccc1)N(Cc1ccc(-c2noc(C(F)(F)F)n2)cc1)CC1CC1 [Compound 1.247, N-(cyclopropylmethyl)-N-[[4-[5-(trifluoromethyl)-1,2,4-oxadiazol-3-yl]phenyl]methyl]-benzamide]",pest or weed control at 200 ppm,[1],≥ 80%
same,inhibition of growth at 20 ppm,[2],≥ 80%
"O=C(c1ccccc1Cl)N(Cc1ccc(-c2noc(C(F)(F)F)n2)cc1)C1CC1 [Compound 1.120, 2-chloro-N-cyclopropyl-N-[[4-[5-(trifluoromethyl)-1,2,4-oxadiazol-3-yl]phenyl]methyl]-benzamide]",pest or weed control at 200 ppm,[1],≥ 80%
same,inhibition of growth at 20 ppm,[2],≥ 80%
"O=C(c1ccoc1)N(Cc1ccc(-c2noc(C(F)(F)F)n2)cc1)CC1CCCO1 (stereo not drawn) [Compound 1.449, N-(tetrahydrofuran-2-ylmethyl)-N-[[4-[5-(trifluoromethyl)-1,2,4-oxadiazol-3-yl]phenyl]methyl]-furan-3-carboxamide]",pest or weed control at 200 ppm,[1],≥ 80%
same,inhibition of growth at 20 ppm,[2],≥ 80%
"C#CC(=O)N(Cc1ccc(-c2noc(C(F)(F)F)n2)cc1)OCCC [Compound 1.305, N-propoxy-N-[[4-[5-(trifiuoromethyl)-1,2,4-oxadiazol-3-yl]phenyl]methyl]-prop-2-ynamide]",pest or weed control at 200 ppm,[1],≥ 80%
same,inhibition of growth at 20 ppm,[2],≥ 80%
"CON(C(=O)C1CC1(F)F)C(C)c1ccc(-c2noc(C(F)(F)F)n2)cc1 (stereo not drawn) [Compound 1.251, 2,2-difluoro-N-methoxy-N-[1-[4-[5-(trifluoromethyl)-1,2,4-oxadiazol-3-yl]phenyl]ethyl]-cyclopropane-carboxamide]",pest or weed control at 200 ppm,[1],≥ 80%
same,inhibition of growth at 20 ppm,[2],≥ 80%
"CCC(=O)N(Cc1ccc(-c2noc(C(F)(F)F)n2)cc1)OCc1ccc(Cl)cc1 [Compound 1.550, N-[(4-chlorophenyl)-methoxy]-N-[[4-[5-(trifluoromethyl)-1,2,4-oxadiazol-3-yl]phenyl]methyl]-propanamide]",pest or weed control at 200 ppm,[1],≥ 80%
same,inhibition of growth at 20 ppm,[2],≥ 80%
"CCCON(Cc1ccc(-c2noc(C(F)(F)F)n2)cc1)C(=O)C1(C#N)CC1 [Compound 1.313, 1-cyano-N-propoxy-N-[[4-[5-(trifluoromethyl)-1,2,4-oxadiazol-3-yl]phenyl]methyl]-cyclopropane-carboxamide]",pest or weed control at 200 ppm,[1],≥ 80%
same,inhibition of growth at 20 ppm,[2],≥ 80%
"C#CCOC(C(=O)N(Cc1ccc(-c2noc(C(F)(F)F)n2)cc1)OC)c1ccc(Cl)cc1 (stereo not drawn) [Compound 1.69, 2-(4-chlorophenyl)-N-methoxy-2-prop-2-ynoxy-N-[[4-[5-(trifluoromethyl)-1,2,4-oxadiazol-3-yl]phenyl]methyl]-acetamide]",pest or weed control at 200 ppm,[1],≥ 80%
same,inhibition of growth at 20 ppm,[2],≥ 80%
"C=CCN(Cc1ccc(-c2noc(C(F)(F)F)n2)cc1)C(=O)CCl [Compound 1.482, N-allyl-2-chloro-N-[[4-[5-(trifluoromethyl)-1,2,4-oxadiazol-3-yl]phenyl]methyl]-acetamide]",pest or weed control at 200 ppm,[1],≥ 80%
same,inhibition of growth at 20 ppm,[2],≥ 80%
